Data published in PubChem BioAssay (NCI).
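Following 48 hours of exposure in 96-well plates, responses at five concentrations were used to interpolate endpoints linearly. Abbreviation: GI50, concentration required for 50% inhibition of growth. The concentration for full growth arrest is given as TGI.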

Key:
Experiment in all cases: inhibition of tumour cell growth, NCI panel, 48 h
[1] = test system: 786-0 renal
[2] = test system: A498 renal
[3] = test system: A549 NSCLC
[4] = test system: ACHN renal
[5] = test system: BT-549 breast
[6] = test system: CAKI-1 renal
[7] = test system: CCRF-CEM leukemia
[8] = test system: COLO 205 colon
[9] = test system: DU-145 prostate
[10] = test system: EKVX NSCLC
[11] = test system: HCC-2998 colon
[12] = test system: HCT-116 colon
[13] = test system: HCT-15 colon
[14] = test system: HL-60(TB) leukemia
[15] = test system: HOP-62 NSCLC
[16] = test system: HOP-92 NSCLC
[17] = test system: HS 578T breast
[18] = test system: HT29 colon
[19] = test system: IGROV1 ovarian
[20] = test system: K-562 leukemia
[21] = test system: KM12 colon
[22] = test system: LOX IMVI melanoma
[23] = test system: M14 melanoma
[24] = test system: MALME-3M melanoma
[25] = test system: MCF7 breast
[26] = test system: MDA-MB-231 breast
[27] = test system: MDA-MB-435
[28] = test system: MDA-MB-468 breast
[29] = test system: MOLT-4 leukemia
[30] = test system: NCI-H226 lung
[31] = test system: NCI-H23 lung
[32] = test system: NCI-H460 lung
[33] = test system: NCI-H522 lung
[34] = test system: NCI/ADR-RES ovarian
[35] = test system: OVCAR-3 ovarian
[36] = test system: OVCAR-4 ovarian
[37] = test system: OVCAR-5 ovarian
[38] = test system: OVCAR-8 ovarian
[39] = test system: PC-3 prostate
[40] = test system: RPMI-8226 leukemia
[41] = test system: RXF 393 renal
[42] = test system: SF-268 CNS
[43] = test system: SF-295 CNS
[44] = test system: SF-539 CNS
[45] = test system: SK-MEL-2 melanoma
[46] = test system: SK-MEL-28 melanoma
[47] = test system: SK-MEL-5 melanoma
[48] = test system: SK-OV-3 ovarian
[49] = test system: SN12C renal
[50] = test system: SNB-19 CNS
[51] = test system: SNB-75 CNS
[52] = test system: SW-620 colon
[53] = test system: T-47D breast
[54] = test system: TK-10 renal
[55] = test system: U251 CNS
[56] = test system: UACC-257 melanoma
[57] = test system: UACC-62 melanoma
[58] = test system: UO-31 renal

## FC(F)(F)CN1CCN(CCn2c(C(F)(F)F)cc3c(Cl)ncnc32)CC1
[1]
  GI50: 22.3 µM
  TGI: 60.7 µM
[2]
  GI50: 21.3 µM
  TGI: 57.4 µM
[3]
  GI50: 52.9 µM
  TGI: > 100 µM
[4]
  GI50: 12.3 µM
  TGI: > 100 µM
[5]
  GI50: 13 µM
  TGI: 26.8 µM
[6]
  GI50: 13.6 µM
  TGI: 30.6 µM
[7]
  GI50: 4.37 µM
  TGI: > 100 µM
[8]
  GI50: 18.4 µM
  TGI: 46.2 µM
[9]
  GI50: 12.5 µM
  TGI: 32.8 µM
[10]
  GI50: 11.6 µM
  TGI: 40.4 µM
[11]
  GI50: 1.83 µM
  TGI: 3.28 µM
[12]
  GI50: 3.16 µM
  TGI: 13.3 µM
[13]
  GI50: 2.55 µM
  TGI: 7.37 µM
[14]
  GI50: 2.75 µM
  TGI: 8.18 µM
[15]
  GI50: 13.8 µM
  TGI: 32.5 µM
[16]
  GI50: 12.9 µM
  TGI: 29.2 µM
[17]
  GI50: 14.2 µM
  TGI: 59.8 µM
[18]
  GI50: 5.46 µM
  TGI: 36.6 µM
[19]
  GI50: 1.78 µM
  TGI: 3.54 µM
[20]
  GI50: 2.8 µM
  TGI: > 100 µM
[21]
  GI50: 17.9 µM
  TGI: 39.9 µM
[22]
  GI50: 1.68 µM
  TGI: 3.1 µM
[23]
  GI50: 6.19 µM
  TGI: 23.1 µM
[24]
  GI50: 14.5 µM
  TGI: 32 µM
[25]
  GI50: 10 µM
  TGI: 42.6 µM
[26]
  GI50: 1.76 µM
  TGI: 4.28 µM
[27]
  GI50: 5.5 µM
  TGI: 19.5 µM
[28]
  GI50: 2.19 µM
  TGI: 4.94 µM
[29]
  GI50: 2.4 µM
  TGI: 9.2 µM
[30]
  GI50: 17.4 µM
  TGI: 72.8 µM
[31]
  GI50: 5.84 µM
  TGI: 26.6 µM
[32]
  GI50: 2.66 µM
  TGI: 6.73 µM
[33]
  GI50: 1.7 µM
  TGI: 3.52 µM
[34]
  GI50: 19 µM
  TGI: 46.6 µM
[35]
  GI50: 14.3 µM
  TGI: 34.4 µM
[36]
  GI50: 26.8 µM
  TGI: > 100 µM
[37]
  GI50: > 100 µM
  TGI: > 100 µM
[38]
  GI50: 3.2 µM
  TGI: 11.7 µM
[39]
  GI50: 3.53 µM
  TGI: 12 µM
[40]
  GI50: 23.7 µM
  TGI: 77.4 µM
[41]
  GI50: 11 µM
  TGI: 28.1 µM
[42]
  GI50: 5.2 µM
  TGI: 21.4 µM
[43]
  GI50: 10.3 µM
  TGI: 25.9 µM
[44]
  GI50: 12.6 µM
  TGI: 28.7 µM
[45]
  GI50: 15.7 µM
  TGI: 30.9 µM
[46]
  GI50: 8.13 µM
  TGI: 37.4 µM
[47]
  GI50: 3.73 µM
  TGI: 13.7 µM
[48]
  GI50: 16.2 µM
  TGI: 43.2 µM
[49]
  GI50: 7.75 µM
  TGI: 23.1 µM
[50]
  GI50: 13.2 µM
  TGI: 26.8 µM
[51]
  GI50: 3.11 µM
  TGI: 14.2 µM
[52]
  GI50: 4.86 µM
  TGI: 19.5 µM
[53]
  GI50: 17.3 µM
  TGI: 63.7 µM
[54]
  GI50: 35.5 µM
  TGI: > 100 µM
[55]
  GI50: 2.4 µM
  TGI: 6.43 µM
[56]
  GI50: 4.09 µM
  TGI: 16.9 µM
[57]
  GI50: 4.69 µM
  TGI: 18.1 µM
[58]
  GI50: 1.63 µM
  TGI: 3.27 µM
